Experimental data published in patent publication US20100137315A1, “Sphingosine Kinase Inhibitors and Methods of Their Use” (APOGEE BIOTECHNOLOGY CORPORATION, priority 2005, published 2010).

Key:
[1] = biological target: Protein kinase C α (Homo sapiens, UniProt P17252); test: Kinase selectivity panel; type: biochemical; settings: read-out: percent of control activity of Protein kinase C α
Experimental: (§1) A common problem with previous attempts to develop protein kinase inhibitors is the lack of selectivity toward the target kinase since the majority of these compounds interact with nucleotide-binding domains that are highly conserved among kinases. To determine if compound of this invention are non-selective kinase inhibitors, the effects of the SK inhibitor, Compound 73, on a diverse panel of 20 purified kinases was determined. The compound was tested at a single concentration of 50 μM.

[2] = biological target: Aurora-A (Homo sapiens, UniProt O14965); test: Kinase selectivity panel; type: biochemical; settings: read-out: percent of control activity of Aurora-A
Aurora-A, sequence (O14965 whole entry): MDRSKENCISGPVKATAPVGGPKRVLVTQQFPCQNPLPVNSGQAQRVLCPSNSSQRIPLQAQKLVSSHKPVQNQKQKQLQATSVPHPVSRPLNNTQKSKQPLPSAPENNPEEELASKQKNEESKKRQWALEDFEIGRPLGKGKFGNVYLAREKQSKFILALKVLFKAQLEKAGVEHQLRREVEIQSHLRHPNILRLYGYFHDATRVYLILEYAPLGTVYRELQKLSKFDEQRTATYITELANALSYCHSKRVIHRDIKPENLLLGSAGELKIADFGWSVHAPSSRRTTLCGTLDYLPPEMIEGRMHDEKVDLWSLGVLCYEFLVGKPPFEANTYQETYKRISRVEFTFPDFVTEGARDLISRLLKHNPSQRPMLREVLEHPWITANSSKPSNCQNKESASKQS
Experimental: as §1

[3] = biological target: IKKα (Homo sapiens, UniProt O15111); test: Kinase selectivity panel; type: biochemical; settings: read-out: percent of control activity of IKKα
IKKα, sequence (O15111 whole entry, species assumed): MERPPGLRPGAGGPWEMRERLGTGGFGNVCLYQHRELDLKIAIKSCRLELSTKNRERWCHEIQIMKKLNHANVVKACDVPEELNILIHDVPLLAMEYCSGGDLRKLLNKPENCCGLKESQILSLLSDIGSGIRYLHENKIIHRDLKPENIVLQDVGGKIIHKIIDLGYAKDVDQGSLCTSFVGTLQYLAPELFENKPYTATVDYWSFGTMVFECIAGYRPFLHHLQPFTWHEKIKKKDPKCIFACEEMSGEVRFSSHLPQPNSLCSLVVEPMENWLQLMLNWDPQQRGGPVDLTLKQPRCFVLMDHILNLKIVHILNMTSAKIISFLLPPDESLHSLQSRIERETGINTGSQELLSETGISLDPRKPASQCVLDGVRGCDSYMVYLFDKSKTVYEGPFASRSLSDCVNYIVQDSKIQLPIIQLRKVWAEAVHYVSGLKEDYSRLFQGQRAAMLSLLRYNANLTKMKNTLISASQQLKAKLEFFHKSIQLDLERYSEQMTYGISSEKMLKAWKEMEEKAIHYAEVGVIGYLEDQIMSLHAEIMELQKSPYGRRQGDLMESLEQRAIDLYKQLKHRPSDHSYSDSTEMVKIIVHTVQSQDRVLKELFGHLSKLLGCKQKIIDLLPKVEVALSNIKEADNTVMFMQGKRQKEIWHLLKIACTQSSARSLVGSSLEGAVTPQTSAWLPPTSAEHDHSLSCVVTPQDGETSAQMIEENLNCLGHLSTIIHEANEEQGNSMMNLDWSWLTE
Experimental: as §1

[4] = biological target: P38 MAP kinase 2 (Homo sapiens, UniProt Q15759); test: Kinase selectivity panel; type: biochemical; settings: read-out: percent of control activity of P38 MAP kinase 2
Experimental: as §1

[5] = biological target: P38 MAP kinase 1 (Homo sapiens, UniProt Q16539); test: Kinase selectivity panel; type: biochemical; settings: read-out: percent of control activity of P38 MAP kinase 1
P38 MAP kinase 1, sequence (Q16539 whole entry): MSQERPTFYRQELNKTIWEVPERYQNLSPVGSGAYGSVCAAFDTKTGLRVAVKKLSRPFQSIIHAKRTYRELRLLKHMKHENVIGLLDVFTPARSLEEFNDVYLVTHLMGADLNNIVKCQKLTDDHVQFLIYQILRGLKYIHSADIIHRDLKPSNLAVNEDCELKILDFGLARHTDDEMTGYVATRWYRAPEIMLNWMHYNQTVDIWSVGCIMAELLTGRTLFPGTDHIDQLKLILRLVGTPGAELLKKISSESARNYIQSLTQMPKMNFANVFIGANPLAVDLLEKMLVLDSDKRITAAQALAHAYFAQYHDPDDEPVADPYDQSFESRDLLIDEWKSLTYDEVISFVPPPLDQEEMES
Experimental: as §1

[6] = biological target: EFGR (Homo sapiens, UniProt P00533); test: Kinase selectivity panel; type: biochemical; settings: read-out: percent of control activity of EFGR
Experimental: as §1

[7] = biological target: CDK2/cyclinE (Homo sapiens, UniProt P24941); test: Kinase selectivity panel; type: biochemical; settings: read-out: percent of control activity of CDK2/cyclinE
Experimental: as §1

[8] = biological target: Ca^2+/calmodulin PK IV (Homo sapiens, UniProt Q16566); test: Kinase selectivity panel; type: biochemical; settings: read-out: percent of control activity of Ca^2+/calmodulin PK IV
Experimental: as §1

[9] = tested on: MEK kinase 1; test: Kinase selectivity panel; type: biochemical; settings: 50 μM
Experimental: as §1

[10] = biological target: PKBα (Homo sapiens, UniProt P31749); test: Kinase selectivity panel; type: biochemical; settings: read-out: percent of control activity of PKBα
Experimental: as §1

[11] = biological target: CDK1/cyclinB (Homo sapiens, UniProt P06493); test: Kinase selectivity panel; type: biochemical; settings: read-out: percent of control activity of CDK1/cyclinB
Experimental: as §1

[12] = biological target: Protein kinase C ε (Homo sapiens, UniProt Q02156); test: Kinase selectivity panel; type: biochemical; settings: read-out: percent of control activity of Protein kinase C ε
Experimental: as §1

[13] = biological target: Abl (Homo sapiens, UniProt P00519); test: Kinase selectivity panel; type: biochemical; settings: read-out: percent of control activity of Abl
Experimental: as §1

[14] = biological target: Fyn (Homo sapiens, UniProt P06241); test: Kinase selectivity panel; type: biochemical; settings: read-out: percent of control activity of Fyn
Fyn, sequence (P06241 whole entry, species assumed): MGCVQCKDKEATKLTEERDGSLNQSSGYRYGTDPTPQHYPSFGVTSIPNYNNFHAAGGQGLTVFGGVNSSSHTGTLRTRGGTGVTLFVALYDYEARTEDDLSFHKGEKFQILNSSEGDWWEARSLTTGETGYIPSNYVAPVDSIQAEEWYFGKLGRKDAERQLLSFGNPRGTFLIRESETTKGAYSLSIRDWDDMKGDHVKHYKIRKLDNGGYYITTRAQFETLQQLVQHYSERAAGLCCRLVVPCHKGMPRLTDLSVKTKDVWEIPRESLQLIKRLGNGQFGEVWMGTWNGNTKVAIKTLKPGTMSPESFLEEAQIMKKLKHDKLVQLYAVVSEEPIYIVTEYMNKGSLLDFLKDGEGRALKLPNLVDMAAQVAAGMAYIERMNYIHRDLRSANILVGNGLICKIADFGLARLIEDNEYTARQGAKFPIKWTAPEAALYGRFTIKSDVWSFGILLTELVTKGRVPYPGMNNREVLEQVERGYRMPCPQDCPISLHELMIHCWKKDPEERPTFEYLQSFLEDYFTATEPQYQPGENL
Experimental: as §1

[15] = biological target: PDK1 (Homo sapiens, UniProt O15530); test: Kinase selectivity panel; type: biochemical; settings: read-out: percent of control activity of PDK1
PDK1, sequence (O15530 whole entry): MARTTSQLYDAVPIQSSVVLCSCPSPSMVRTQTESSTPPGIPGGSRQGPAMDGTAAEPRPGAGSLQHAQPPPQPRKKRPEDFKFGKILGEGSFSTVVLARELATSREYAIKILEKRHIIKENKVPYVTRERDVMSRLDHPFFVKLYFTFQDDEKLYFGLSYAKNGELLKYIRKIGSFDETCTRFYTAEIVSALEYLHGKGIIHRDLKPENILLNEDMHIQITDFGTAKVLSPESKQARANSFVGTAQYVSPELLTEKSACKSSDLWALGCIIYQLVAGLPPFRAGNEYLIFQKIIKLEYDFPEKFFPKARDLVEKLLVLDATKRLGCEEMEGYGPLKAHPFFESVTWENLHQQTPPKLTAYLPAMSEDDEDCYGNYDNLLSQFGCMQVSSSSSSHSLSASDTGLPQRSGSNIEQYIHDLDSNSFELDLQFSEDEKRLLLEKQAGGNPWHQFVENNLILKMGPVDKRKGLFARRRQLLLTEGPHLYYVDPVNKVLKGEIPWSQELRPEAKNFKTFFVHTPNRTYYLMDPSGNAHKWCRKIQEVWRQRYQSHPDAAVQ
Experimental: as §1

[16] = biological target: cRaf (Homo sapiens, UniProt P04049); test: Kinase selectivity panel; type: biochemical; settings: read-out: percent of control activity of cRaf
cRaf, sequence (P04049 whole entry, species assumed): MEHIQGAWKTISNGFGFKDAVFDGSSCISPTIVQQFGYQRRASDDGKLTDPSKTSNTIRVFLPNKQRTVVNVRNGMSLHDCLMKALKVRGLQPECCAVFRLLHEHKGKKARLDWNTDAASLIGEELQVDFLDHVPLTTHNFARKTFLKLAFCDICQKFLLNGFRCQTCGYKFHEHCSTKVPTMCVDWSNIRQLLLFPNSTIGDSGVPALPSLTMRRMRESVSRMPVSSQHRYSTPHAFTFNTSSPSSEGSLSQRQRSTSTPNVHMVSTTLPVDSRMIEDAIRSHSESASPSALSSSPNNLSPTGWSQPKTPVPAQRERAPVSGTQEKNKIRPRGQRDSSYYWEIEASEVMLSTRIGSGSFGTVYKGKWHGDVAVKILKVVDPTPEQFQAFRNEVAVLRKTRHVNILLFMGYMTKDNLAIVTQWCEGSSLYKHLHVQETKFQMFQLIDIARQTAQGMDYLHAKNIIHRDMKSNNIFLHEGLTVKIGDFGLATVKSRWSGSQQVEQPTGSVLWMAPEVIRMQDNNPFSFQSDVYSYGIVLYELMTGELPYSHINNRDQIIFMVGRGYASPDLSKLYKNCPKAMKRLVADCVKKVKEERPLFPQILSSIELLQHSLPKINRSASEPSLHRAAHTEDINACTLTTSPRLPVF
Experimental: as §1

[17] = biological target: PKBγ (Homo sapiens, UniProt Q9Y243); test: Kinase selectivity panel; type: biochemical; settings: read-out: percent of control activity of PKBγ
PKBγ, sequence (Q9Y243 whole entry, species assumed): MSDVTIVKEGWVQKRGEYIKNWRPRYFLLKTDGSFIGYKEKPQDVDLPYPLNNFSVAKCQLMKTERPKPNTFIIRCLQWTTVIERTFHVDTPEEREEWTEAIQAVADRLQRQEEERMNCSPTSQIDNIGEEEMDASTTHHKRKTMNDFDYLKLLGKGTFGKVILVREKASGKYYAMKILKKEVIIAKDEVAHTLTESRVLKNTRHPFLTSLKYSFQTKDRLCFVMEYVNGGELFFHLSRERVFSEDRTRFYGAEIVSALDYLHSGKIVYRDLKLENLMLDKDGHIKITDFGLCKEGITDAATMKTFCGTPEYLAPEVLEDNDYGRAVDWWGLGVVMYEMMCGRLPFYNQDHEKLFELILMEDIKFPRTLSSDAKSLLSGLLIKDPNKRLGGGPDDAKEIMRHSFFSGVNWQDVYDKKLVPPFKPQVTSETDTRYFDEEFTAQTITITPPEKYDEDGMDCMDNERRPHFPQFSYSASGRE
Experimental: as §1

[18] = biological target: PKA (Homo sapiens, UniProt P17612); test: Kinase selectivity panel; type: biochemical; settings: read-out: percent of control activity of PKA
Experimental: as §1

[19] = biological target: cSrc (Homo sapiens, UniProt P12931); test: Kinase selectivity panel; type: biochemical; settings: read-out: percent of control activity of cSrc
Experimental: as §1

[20] = biological target: CHK1 (Homo sapiens, UniProt O14757); test: Kinase selectivity panel; type: biochemical; settings: read-out: percent of control activity of CHK1
CHK1, sequence (O14757 whole entry, species assumed): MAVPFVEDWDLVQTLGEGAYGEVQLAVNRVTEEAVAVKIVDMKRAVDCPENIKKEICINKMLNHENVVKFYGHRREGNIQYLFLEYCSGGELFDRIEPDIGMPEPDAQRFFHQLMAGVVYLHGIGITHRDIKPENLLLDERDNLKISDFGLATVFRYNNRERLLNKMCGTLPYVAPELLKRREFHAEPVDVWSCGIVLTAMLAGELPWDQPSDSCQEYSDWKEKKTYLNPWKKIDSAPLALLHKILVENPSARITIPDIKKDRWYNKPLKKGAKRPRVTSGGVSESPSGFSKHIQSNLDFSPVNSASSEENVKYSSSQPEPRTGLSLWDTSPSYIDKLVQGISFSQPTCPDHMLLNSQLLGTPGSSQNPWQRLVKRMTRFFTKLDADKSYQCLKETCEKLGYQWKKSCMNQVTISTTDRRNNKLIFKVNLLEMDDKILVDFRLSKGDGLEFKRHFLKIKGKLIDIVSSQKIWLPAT
Experimental: as §1

[21] = tested on: C57BL/6 mice; test: Acute DSS-colitis model of IBD; type: in vivo, mouse; settings: 2% DSS, 50 mg/kg oral daily
Experimental: FIG. 4. Effects of Compound 8 and Dipentum on the DAI in the acute DSS-colitis model. C57BL/6 mice were treated for 6 days as follows: normal drinking water and daily oral administration of PEG (No DSS), 2% DSS in the drinking water and daily oral administration of PEG (DSS alone); 2% DSS in the drinking water and daily oral administration of 50 mg/kg Compound 8 in PEG (DSS+Compound 8), or 2% DSS in the drinking water and daily oral administration of 50 mg/kg Dipentum in PEG (DSS+Dipentum). On the indicated day, the Disease Activity Index was calculated for each group. Values represent the mean±sd for 5-6 mice per group.
FIG. 5. Effects of Compound 8 and Dipentum on colon length in the acute DSS-colitis model. Mice from the experiment described in FIG. 4 were sacrificed on Day 6, and the colon was harvested from each animal and measured. Data represent the mean±sd colon length.
FIG. 6. Effects of Compound 8 and Dipentum on neutrophil infiltration into the colon in the acute DSS-colitis model. Myeloperoxidase (MPO) activity from the colons of the animals described in FIG. 4 was measured. Values the mean±sd MPO activity in units per gram of tissue.
FIG. 7. Effects of Compound 8 and Dipentum on colonic cytokine levels in the acute DSS-colitis model. Colon samples from mice described in FIG. 4 were extracted and assayed for the levels of the indicated cytokines Values represent the mean±sd amount of each cytokine in 4-5 samples per group.
Experiments were conducted with SK inhibitors using the dextran sulfate sodium (DSS) model of IBD. In these experiments, male C57BL/6 mice were provided with standard rodent diet and water ad libitum. After their acclimation, the animals were randomly divided into groups of 5 or 6 for DSS (40,000 MW from ICN Biomedicals, Inc., Aurora, Ohio)— and drug-treatment. […] The body weight of each animal was measured each day, and the Disease Activity Index (DAI) was scored for each animal on Days 4-6. On Day 6, the animals were sacrificed by cervical dislocation and the entire colon was removed and measured to the nearest 0.1 cm.

## Clc1ccc(-c2csc(NCc3ccccc3)n2)cc1 [Compound 73, Benzyl-[4-(4-chloro-phenyl)-thiazol-2-yl]-amine]
[1]
  remaining activity at 50 µM: 92 ± 1%
[2]
  remaining activity at 50 µM: 100%
[3]
  remaining activity at 50 µM: 152 ± 7%
[4]
  remaining activity at 50 µM: 101%
[5]
  remaining activity at 50 µM: 88 ± 1%
[6]
  remaining activity at 50 µM: 99 ± 9%
[7]
  remaining activity at 50 µM: 102 ± 7%
[8]
  remaining activity at 50 µM: 113 ± 3%
[9]
  percent of control activity of MEK kinase 1: 104 ± 3%
[10]
  remaining activity at 50 µM: 102 ± 1%
[11]
  remaining activity at 50 µM: 100%
[12]
  remaining activity at 50 µM: 91 ± 2%
[13]
  remaining activity at 50 µM: 100 ± 1%
[14]
  remaining activity at 50 µM: 102%
[15]
  remaining activity at 50 µM: 98 ± 6%
[16]
  remaining activity at 50 µM: 104 ± 1%
[17]
  remaining activity at 50 µM: 100 ± 10%
[18]
  remaining activity at 50 µM: 94 ± 4%
[19]
  remaining activity at 50 µM: 119 ± 6%
[20]
  remaining activity at 50 µM: 124%

## CCCC(=O)Oc1ccc(C=CC(=O)Nc2nc(-c3ccc(Cl)cc3)cs2)cc1OC [Compound 8, Butyric acid 4-{2-[4-(4-chloro-phenyl)-thiazol-2-ylcarbamoyl]-vinyl}-2-methoxy-phenyl ester]
[21]
  increase in colonic MPO activity: markedly attenuated
[21]; Day 6
  colon length: intermediate length
[21]; Days 4-6
  Disease Activity Index (DAI): reduced the intensity of the IBD manifestations
